The values below come from patent US20240277700A1, “COMPOSITIONS AND METHODS FOR TREATING AND PREVENTING INTERSTITIAL CYSTITIS” (Hista RX LLC, priority 2021, published 2024).

Test [1] deals with patient with interstitial cystitis. In words: Example 2: case report, patient with chronic interstitial cystitis and IBS-diarrhea. To be noted: person; before the combination.
The test system of test [2] is patient with painful bladder syndrome. In words: Example 3: case report, patient with chronic painful bladder syndrome. It counts as in vivo, human. Conditions: person; prior treatment without the combination.
In a further test the test system is patients with IC. To be noted: cited from earlier work.

As for `COc1ccc2nc([S@@+]([O-])Cc3ncc(C)c(OC)c3C)[nH]c2c1` [Esomeprazole], the “resolution of urologic and/or gastrointestinal conditions by previous medications” value in test [1] is recorded as “without resolution”.

With `OCCOCCN1CCN(C(c2ccccc2)c2ccc(Cl)cc2)CC1` (centres unmarked) [Hydroxyzine], the “symptomatic relief by prior treatment” value in test [2] is “insufficient”. In addition, in the test on patients with IC (monotherapy), the “benefit in the treatment of IC” value is given as “some limited benefit”.

For the molecule `CN/C(=N/CCSCc1nc[nH]c1C)NC#N` [cimetidine], the “symptomatic relief of IC” value in the test with patients with IC (monotherapy 300 mg bid (600 mg daily) for one month, case series of 9 patients) was “effective”.

As to Sucralfate, the “resolution of urologic and/or gastrointestinal conditions by previous medications” value in test [1] is given as “without resolution”.
